Experiments:
[1] = tested on: phospho-SMAD 1/5/8 in human fetal neurospheres expressing mutant APP; assay: phospho-SMAD 1/5/8 immunofluorescence staining in neurospheres treated with BMP receptor inhibitor; type: cell-based; settings: neurospheres treated for 1 week, different doses; FIGS. 5B and C
Text: (§1) A human fetal neural stem cell line from University of California Irvine was developed from fetal neural tissue at 18 week gestational age enriched for CD133+ cells. The use of neural progenitor cells as non-hESC stem cells in this study is compliant to Stanford Stem Cell Research Oversight (SCRO) Protocol 194 pre-approved by the Internal Review Board (IRB)/SCRO of the Stanford Research Compliance Office (RCO). Informed consent was obtained, and standard material transfer agreement signed. Cells were grown in nonadherent ultra-low attachment well plates in X-VIVO 15 media (LONZA) supplemented with LIF (10 ng/ml), N2 Supplement, N-acetylcysteine (63 ug/ml), Heparin (2 ug/ml), EGF (20 ng/ml), and FGF (20 ng/ml).
(§2) cDNA for mutant APP harboring the Swedish and Indiana mutations was cloned into a pHIV-Zsgreen backbone obtained from Addgene. Lipofectamine 2000 was used to transduce the construct (either pHIV-Zsgreen+mutant APP or pHIV-Zsgreen alone) into H293T cells and media was collected after 48 hours. Virus was ultra-centrifuged and resuspended in PBS then titered before infecting human fetal neurospheres.
Neurospheres were cytospun onto slides and fixed in ice-cold methanol for 5 minutes. Slides were rinsed 3 times in phosphate-buffered saline (PBS) at room temperature, followed by blocking in 3% BSA in PBS for 1 hour at room temperature. […]

[2] = tested on: Zsgreen control neurospheres; assay: Colony counts of Zsgreen-infected control human fetal neurospheres after 1 week of treatment; type: cell-based; settings: 1 week treatment; FIG. 5E
Text: as §1, §2
Human neurospheres were dissociated into single cells and infected with either a lentiviral construct containing pHIV-Zsgreen+mutant APP or pHIV-Zsgreen alone and allowed to grow for a week. […] Colonies were counted after 7 days.

c1ccc2c(-c3cnn4cc(-c5ccc(N6CCNCC6)cc5)cnc34)ccnc2c1 [LDN-193189]
pSMAD 1/5/8 level after treatment [1]: substantially decreased
impact on Zsgreen control neurosphere growth [2]: minimal impact

Source: patent publication US20240102022A1, “MODULATING BONE MORPHOGENIC PROTEIN (BMP) SIGNALING IN THE TREATMENT OF ALZHEIMER'S DISEASE” (CZ Biohub SF, LLC, priority 2020, published 2024)
